The text below walks through data of PubChem BioAssay (NCI).

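Where inhibition never reached the appropriate level, the endpoint shown equals the highest concentration tested. Otherwise, values were interpolated linearly from a five-concentration, 48-hour dose response in 96-well plates. The concentration for full growth arrest is given as TGI.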 Where a SMILES comes first, the peptide text is derived from it. The star is where a group is joined. Fmoc = O=C(OCC1c2ccccc2-c2ccccc21)*; OtBu = CC(C)(C)O* Bounds are passed on as bounds.

What all share (test): NCI anticancer screen, dose series, 48 h
The test system of experiment [1] is ACHN renal.
Experiment [2] has as its system DMS 114 small cell lung.
Experiment [3] concerns HL-60(TB) leukemia.
Experiment [4] deals with HOP-18 NSCLC.
In experiment [5] the test system is KM20L2 colon.
Experiment [6] concerns LXFL 529 NSCLC.
Experiment [7] relates to M19-MEL melanoma.
Experiment [8] deals with MOLT-4 leukemia.
For experiment [9], the system named is RPMI-8226 leukemia.
Experiment [10] deals with SK-MEL-28 melanoma.
For experiment [11], the system named is SN12C renal.
For experiment [12], the system named is SNB-78 CNS.
Experiment [13] relates to UACC-62 melanoma.
Experiment [14] deals with UO-31 renal.
The test system of experiment [15] is CAKI-1 renal.
The subject of experiment [16] is DLD-1 colon.
Experiment [17] concerns K-562 leukemia.
Experiment [18] has as its system OVCAR-5 ovarian.
Experiment [19] relates to XF 498 CNS.

For the molecule `OC12c3ccccc3C1CCCCC2N1CCCC1` (stereo not drawn), the TGI in experiment [1], in experiment [2], in experiment [3], in experiment [4], in experiment [5] and in experiment [6] was over 100 µM each time. The TGI in experiment [7], in experiment [8], in experiment [9], in experiment [10], in [11] and in experiment [12] was over 100 µM in each case. The TGI in experiment [13] and in experiment [14] was over 100 µM in each case.
`CC(C)(O)C(O)COc1c2c(cc3oc(=O)ccc13)OCO2` (stereo not drawn): the TGI in experiment [1], in [15], in [16], in experiment [2], in experiment [3] and in experiment [4] was over 100 µM each time. Besides, the TGI in experiment [17], in experiment [5], in [6], in [7], in experiment [8] and in experiment [18] was over 100 µM throughout. The TGI in [9], in [10], in experiment [11], in experiment [13], in experiment [14] and in experiment [19] was over 100 µM in each case.
On to `COc1cc(/C=C2\C(=O)N(C(=O)Cc3ccccc3)N=C2C)cc(OC)c1OC`, for which the TGI in experiment [1], in experiment [15], in experiment [16], in experiment [2], in experiment [3] and in experiment [4] was over 100 µM in each case. Further, the TGI in [17], in experiment [7], in experiment [8], in experiment [18], in experiment [9] and in [10] was over 100 µM in each case. For the same molecule, the TGI in experiment [11], in [12], in experiment [14] and in [19] was over 100 µM each time.
As for `Cc1nc2sccn2c1C(=O)NN`, the TGI in [1], in experiment [15], in [16], in experiment [2], in experiment [3] and in experiment [4] was over 100 µM throughout. The TGI in [17], in [5], in [6], in experiment [7], in experiment [8] and in experiment [18] was over 100 µM in each case. The TGI in [9], in experiment [10], in experiment [11], in [13] and in experiment [19] was over 100 µM throughout.
In the case of `COc1ccc(CNc2cnc3cc(N)ccc3n2)cc1`, the TGI in experiment [1], in [2], in experiment [3], in experiment [17], in [5] and in [6] was over 100 µM each time. Also, the TGI in [7], in experiment [8], in [18], in experiment [9], in experiment [10] and in experiment [11] was over 100 µM in each case. Further, the TGI in experiment [12], in [13], in [14] and in experiment [19] was over 100 µM in each case.
`c1csc(-c2nn3c(C45CC6CC(CC(C6)C4)C5)nnc3s2)c1`: the TGI in experiment [1], in [15], in [3], in experiment [17], in [8] and in [18] was over 100 µM in each case. Further, the TGI in experiment [9], in experiment [10], in experiment [11], in [13] and in [14] was over 100 µM throughout.
Take `C=C(C)C12CC3CC(/C(=N/O)C(C1)/C3=N\O)[C@@]2(C)O` (stereo partly drawn): the TGI in [1], in experiment [15], in experiment [16], in [2], in experiment [3] and in experiment [17] was over 100 µM in each case. The TGI in experiment [5], in [6], in experiment [7], in experiment [8], in experiment [18] and in [9] was over 100 µM in each case. Besides, the TGI in experiment [10], in experiment [11], in experiment [12], in experiment [13] and in experiment [14] was over 100 µM each time.
In the case of `Nc1nc(Cl)cc(NCC2(O)CCC2)n1`, the TGI in experiment [1], in experiment [15], in [3], in experiment [17], in [8] and in [18] was over 100 µM each time. Also, the TGI in [9], in experiment [10], in experiment [11], in experiment [13] and in [14] was over 100 µM each time.
For `CC1=NN(c2nc(N)nc(CN3CCOCC3)n2)C(C)(C)C1`, the TGI in [1] was over 100 µM; in [15] it was 40.1 µM; in experiment [3] it was 30.1 µM; in [17], over 100 µM; in [8] it was over 100 µM; in [18], over 100 µM. For the same molecule, the TGI in experiment [9] was over 100 µM; in [10], over 100 µM; in [11] it was over 100 µM; in [13] it was over 100 µM; in [14], 33.3 µM.
For `C=C(Cl)C(Cl)(CBr)CCC(Br)C(C)(C)Br` (stereo not drawn), the TGI in [1] stood at 5.53 µM; in experiment [15], 5.3 µM; in experiment [3], 6.02 µM; in experiment [17] it was 16.3 µM; in experiment [8], 25.3 µM; in experiment [18] it was 25.4 µM. For the same molecule, the TGI in [9] amounted to 2.01 µM; in experiment [10], 10.1 µM; in [11], 19.7 µM; in [13] it was 28.5 µM; in [14], 20.1 µM.
For the molecule `O=C(O)c1ccccc1C(=O)NCC1S(=O)(=O)OCCOS1(=O)=O`, the TGI in [1], in [15], in experiment [3], in experiment [17], in experiment [8] and in [18] was over 100 µM throughout. Also, the TGI in experiment [9], in experiment [10], in experiment [11], in experiment [13] and in experiment [14] was over 100 µM throughout.
On to `CCOC(=O)C(C(=O)OCC)=C1SC(=Nc2ccccc2)C(=Nc2ccccc2)N1c1ccccc1`, for which the TGI in [1], in experiment [15], in [3], in experiment [17], in experiment [8] and in experiment [18] was over 100 µM throughout. Also, the TGI in experiment [9], in experiment [10], in [11], in experiment [13] and in experiment [14] was over 100 µM each time.
As to `COc1ccc(C(CC2(c3ccc(OC)cc3)SCCCS2)NC(C)=O)cc1` (stereo not drawn), the TGI is over 100 µM in [1]; over 100 µM in [15]; over 100 µM in experiment [3]; over 100 µM in [17]; 84.3 µM in [8]; over 100 µM in experiment [18]. In addition, the TGI in experiment [9] is over 100 µM; in [10] it was over 100 µM; in experiment [11], 96.8 µM; in experiment [13], over 100 µM; in experiment [14], over 100 µM.
As to `Cc1ccc(O)c(C(c2cccc(C(c3cc(C)ccc3O)c3cc(C)ccc3O)c2)c2cc(C)ccc2O)c1`, the TGI came to 3.13 µM in experiment [1]; 3.04 µM in experiment [15]; 5.31 µM in experiment [3]; 3.37 µM in experiment [17]; 18.8 µM in [8]; 3.15 µM in experiment [18]. The TGI in experiment [9] worked out at 3.31 µM; in experiment [10] it was 3.46 µM; in [11], 3.4 µM; in experiment [13], 3.51 µM; in experiment [14], 3.34 µM.
For `CCOCCOCCOCc1nc(C#N)c(N)o1`, the TGI in [1], in experiment [15], in [3], in experiment [17], in [8] and in [18] was over 100 µM each time. The TGI in [9], in experiment [10], in experiment [11], in [13] and in [14] was over 100 µM each time.
For the molecule `Cc1ccc(C)n1-c1ccccc1C1C=Cn2c(=O)nnc3c(OC(C)C)c(OC(C)C)c(O)c1c32` (stereo not drawn), the TGI in [1] was over 100 µM; in experiment [15] it was over 100 µM; in [3] it was 59.6 µM; in experiment [17], over 100 µM; in experiment [8], 56.5 µM; in experiment [18], over 100 µM. Besides, the TGI in [9] was 42.4 µM; in experiment [10] it was 38.1 µM; in experiment [11], over 100 µM; in experiment [13], over 100 µM; in [14], over 100 µM.
Regarding `O=c1nc2n3c4c(cccc4nc-2c(=O)[nH]1)CCC3`, the TGI in [1], in experiment [15], in experiment [3], in experiment [17], in experiment [8] and in experiment [18] was over 100 µM throughout. For the same molecule, the TGI in [9], in experiment [10], in [11], in experiment [13] and in [14] was over 100 µM each time.
As for `Cc1ccc([N+](=O)[O-])cc1S(=O)(=O)Nc1ccc(C2=NN(S(=O)(=O)c3cc([N+](=O)[O-])ccc3C)C(c3ccccc3)C2)cc1` (stereo not drawn), the TGI in [1], in [15], in experiment [3], in experiment [17], in experiment [8] and in experiment [18] was over 100 µM in each case. Further, the TGI was 76.1 µM in [9]; over 100 µM in [10]; over 100 µM in experiment [11]; 44.7 µM in [13]; over 100 µM in experiment [14].
For `Cc1cc(S(=O)(=O)Nc2n[nH]c(-c3ccc(Cl)cc3)n2)c(SSc2cc(Cl)c(C)cc2S(=O)(=O)Nc2n[nH]c(-c3ccc(Cl)cc3)n2)cc1Cl`, the TGI is 98.5 µM in experiment [1]; over 100 µM in [15]; 48.5 µM in experiment [3]; 62.3 µM in [17]; 54.2 µM in experiment [8]; 86.9 µM in [18]. Also, the TGI was over 100 µM in [9]; 96.4 µM in [10]; over 100 µM in [11]; 47 µM in [13]; 81.9 µM in experiment [14].
Consider `CC(=O)OC[C@H]1CN(OC(C)=O)C[C@@H](n2cc(C)c(=O)[nH]c2=O)O1`, for which the TGI in [1], in experiment [15], in experiment [3], in experiment [17], in experiment [8] and in experiment [18] was over 100 µM in each case. Further, the TGI in [9], in experiment [10], in experiment [11], in [13] and in [14] was over 100 µM each time.
As for `CC(C)C(NC(=O)OCC1c2ccccc2-c2ccccc21)C(=O)NC(CCC(=O)OC(C)(C)C)C(=O)OC(C)(C)C` (stereo not drawn) (Fmoc-Val-Glu(OtBu)-OtBu; configuration not given here), the TGI in [1], in [15], in experiment [3], in experiment [17], in [8] and in experiment [18] was over 100 µM each time. The TGI in experiment [9] was over 100 µM; in experiment [10] it was over 100 µM; in experiment [11] it was over 31.6 µM; in [13], over 100 µM; in experiment [14], over 100 µM.
